According to patent publication US20250205248A1, “REPURPOSING VARENICLINE AS AN ANTI-INFLAMMATORY AGENT WITH ITS SUPPRESSOR EFFECTS ON INFLAMMATORY CYTOKINES” (IZMIR EKONOMI UNIVERSITESI, priority 2022, published 2025):
Where a name gives a salt, the structure may show the parent alone.

Legend:
[1] = tested on: LPS-activated RAW264.7 macrophage cell cultures; details: cited from earlier work
sepsis = details: cited from earlier work
[2] = tested on: RAW 264.7 murine macrophage cells; test: LPS-induced inflammatory cytokine levels (IL-1β, IL-6, TNFα) by ELISA in RAW 264.7 cells; format: cell-based; details: for IL-1β level in presence of nAChR antagonist / IL-6 level in presence of nAChR antagonist / TNFα level in presence of nAChR antagonist: antagonist 30 minutes before varenicline and LPS, compared to varenicline-treated groups
Description: RAW 264.7 murine macrophage cells maintained in culture media supplemented with heat inactivated FBS (10%) and penicillin (100 U/ml) and streptomycin (100 μg/ml) at 37° C. in a 5% CO2 incubator were used during the experimental studies. The cells (500,000/well) were seeded in 48-well culture plates after detachment with scraping incubated for 24 h in serum-free media for reattachment to the surface. In the first group, the cells were treated with LPS at increasing concentrations to determine the effective concentration at which cytokines are released. In the second group, the cells were pretreated with varenicline tartarate with increasing concentrations in presence of LPS to determine effective varenicline concentration on LPS-induced cytokine levels. Additionally, the anti-inflammatory effect of varenicline was compared with that of dexamethasone. In the third group, a non-selective nicotinic ACh receptor antagonist mecamylamine hydrochloride and a selective α7nAChR antagonist methyllycaconitine citrate were applied prior to varenicline and LPS administration in order to investigate the involvement of nicotinic receptors.
The inflammatory response of macrophage cells was evaluated by the change in inflammatory cytokine levels (IL-1β, IL-6 and TNFα) after 24 hours. In other groups where the effect of varenicline will be investigated, the LPS concentration, which triggers the increase in all cytokines determined in the first group and employed for the induction of inflammatory response. Increasing concentrations of varenicline were administered 30 minutes before LPS administration, LPS-induced cytokine levels were analyzed at the end of 24-hour protocol and the effective concentration on cytokine levels were determined in the second group. The effective concentration of varenicline was used in the third group in which the receptor-mediated effects investigated.
(§1) Antagonist drugs was applied 30 minutes before varenicline and LPS applications. Thus, the role of α7nAChRs and activation of the cholinergic anti-inflammatory pathway was determined at the end of 24-hour protocol by examining LPS-induced inflammatory cytokine levels (IL-1β, IL-6 and TNFα) in addition to 40 different cytokines and chemokines.
(§2) The results are as follows for the application of the invention. (1) Cytokine levels (IL-1β, IL-6 and TNFα) examined by the ELISA method were increased at the end of 24-hour protocol after induced by LPS in RAW 264.7 cells.

[3] = tested on: transient middle cerebral artery ischemia model; details: mice, treatment for one week, cited from earlier work
[4] = tested on: emphysema induced by porcine pancreatic elastase; details: mice, PPE emphysema, cited from earlier work
α7nAChRs = α7nAChRs (Homo sapiens, UniProt P36544); details: cited from earlier work
RAW 264.7 macrophages = test: LPS-induced cytokine and chemokine panel in RAW 264.7 macrophages; format: cell-based, mouse
Description: FIGS. 6A-6C. Effects of varenicline on LPS-induced 14 mouse cytokines levels in RAW 264.7 macrophages.
as §1, §2

[5] = tested on: RAW 264.7 murine macrophage cells; test: LPS-induced cell proliferation; format: cell-based
Description: (§3) Here, in the application subject invention, the anti-inflammatory potential of varenicline, which is used in the treatment of smoking cessation, was determined for the first time by suppressing increased cytokine levels in inflammatory conditions. According to the current study, the anti-inflammatory activity of varenicline is not limited to its suppression of cytokine levels, but is also associated with suppressed proliferation and macrophage migration rates (FIGS. 4A-6C).
FIGS. 4A-4B. Effects of varenicline on LPS-induced cell proliferation in the presence or absence of nAChR antagonists.
(§4) This invention points out repurposing of varenicline and provides mechanical insights about the effects of varenicline on α7nAChR-mediated activation of cholinergic anti-inflammatory pathway (CAP), cell proliferation, and migration in the in vitro inflammation model induced by LPS.

[6] = tested on: RAW 264.7 murine macrophage cells; test: LPS-induced macrophage migration; format: cell-based
Description: as §3
FIGS. 5A-5B. Effects of varenicline on LPS-induced cell migration in the presence or absence of nAChR antagonists
as §4

α4β2nAChRs = α4β2nAChRs (Homo sapiens, UniProt P17787+P43681); details: central nervous system; cited from earlier work
smokers = details: 3 months of treatment; cited from earlier work
[7] = tested on: RAW 264.7 macrophage cells stimulated with LPS; details: via α7nAChR activation; LPS-stimulated RAW 264.7; cited from earlier work
[8] = varenicline 30 minutes before LPS, 24-hour protocol, compared to the LPS group

Sequence of α7nAChRs (P36544 23-502): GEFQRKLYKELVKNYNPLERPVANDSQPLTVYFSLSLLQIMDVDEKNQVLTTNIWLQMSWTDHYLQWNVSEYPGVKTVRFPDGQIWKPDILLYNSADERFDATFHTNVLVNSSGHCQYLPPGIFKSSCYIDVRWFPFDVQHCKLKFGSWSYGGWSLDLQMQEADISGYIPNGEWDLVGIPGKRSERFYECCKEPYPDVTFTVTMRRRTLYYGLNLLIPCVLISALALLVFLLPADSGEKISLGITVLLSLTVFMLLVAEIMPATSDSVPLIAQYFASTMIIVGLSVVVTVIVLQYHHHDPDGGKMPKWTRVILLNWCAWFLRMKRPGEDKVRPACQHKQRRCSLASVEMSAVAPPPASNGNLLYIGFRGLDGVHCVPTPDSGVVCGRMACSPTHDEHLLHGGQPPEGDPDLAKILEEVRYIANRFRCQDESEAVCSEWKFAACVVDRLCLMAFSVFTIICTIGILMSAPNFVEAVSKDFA
Sequence of α4β2nAChRs (P43681 29-627 limits assumed): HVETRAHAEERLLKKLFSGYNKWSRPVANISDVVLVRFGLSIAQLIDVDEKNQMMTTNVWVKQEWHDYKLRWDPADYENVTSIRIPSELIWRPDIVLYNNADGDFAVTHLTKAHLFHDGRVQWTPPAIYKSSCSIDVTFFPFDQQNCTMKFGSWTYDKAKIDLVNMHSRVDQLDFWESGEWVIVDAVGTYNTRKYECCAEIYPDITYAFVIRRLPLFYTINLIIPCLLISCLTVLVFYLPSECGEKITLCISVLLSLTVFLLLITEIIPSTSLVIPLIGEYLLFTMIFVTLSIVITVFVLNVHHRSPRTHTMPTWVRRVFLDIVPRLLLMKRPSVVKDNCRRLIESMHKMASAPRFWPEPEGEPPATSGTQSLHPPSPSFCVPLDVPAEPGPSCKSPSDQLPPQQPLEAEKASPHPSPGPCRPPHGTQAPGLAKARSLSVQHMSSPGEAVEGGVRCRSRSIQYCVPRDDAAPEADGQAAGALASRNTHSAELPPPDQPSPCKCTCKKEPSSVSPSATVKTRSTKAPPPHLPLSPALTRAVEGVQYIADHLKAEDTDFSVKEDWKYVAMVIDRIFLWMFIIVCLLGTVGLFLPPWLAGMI
Sequence of α4β2nAChRs (P17787 26-502): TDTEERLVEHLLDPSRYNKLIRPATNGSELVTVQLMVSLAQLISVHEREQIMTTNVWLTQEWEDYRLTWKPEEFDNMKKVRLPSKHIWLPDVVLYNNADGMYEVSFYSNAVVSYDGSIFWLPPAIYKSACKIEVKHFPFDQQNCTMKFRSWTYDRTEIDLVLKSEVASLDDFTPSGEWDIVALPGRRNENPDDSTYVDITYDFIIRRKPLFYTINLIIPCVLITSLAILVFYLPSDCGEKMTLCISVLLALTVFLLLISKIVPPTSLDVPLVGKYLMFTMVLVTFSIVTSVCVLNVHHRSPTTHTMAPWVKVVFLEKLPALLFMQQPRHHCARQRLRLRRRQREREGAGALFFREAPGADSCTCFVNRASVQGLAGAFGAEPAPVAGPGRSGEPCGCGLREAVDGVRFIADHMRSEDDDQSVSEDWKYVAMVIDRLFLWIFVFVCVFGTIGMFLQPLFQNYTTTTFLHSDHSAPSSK

COc1ccc(/C=C2\CCCN=C2c2cccnc2)c(OC)c1 [GTS-21]
HMGB-1 level [1]: significantly reduces | TNFα level [1]: significantly reduces | cytokine levels that increased due to inflammation (sepsis): decreased | life span of experimental animals (sepsis): extended

CNC1(C)C2CCC(C2)C1(C)C (stereo not shown) [MEC, mecamylamine hydrochloride]
IL-1β level in presence of nAChR antagonist [2]: significantly increased | IL-6 level in presence of nAChR antagonist [2]: significantly increased | TNFα level in presence of nAChR antagonist [2]: significantly increased

c1cnc2cc3c(cc2n1)[C@@H]1CNC[C@H]3C1 [Varenicline, varenicline]
IL-1β level [2, 8]: significantly decreased | IL-6 level [2, 8]: significantly decreased | TNFα level [2, 8]: significantly decreased | use of damaged forelimbs [3]: increased | inflammation in the corpus striatum ([3]; immunohistochemical analysis): decreased | inflammation ([4]; immunohistochemical analysis): reduce | number of T cells in tissue ([4]; with activation of α7nAChR): significantly reduced | number of macrophages in tissue ([4]; with activation of α7nAChR): significantly reduced | number of neutrophils in tissue ([4]; with activation of α7nAChR): significantly reduced | effect on α7nAChRs (α7nAChRs): potent and complete agonist | LPS-induced 14 different cytokines and chemokines (G-CSF, GM-CSF, IL-1, IL-6, IL-27, IL-1ra, IP-10, MCP-1, MIP-1, RANTES, TNF α) (RAW 264.7 macrophages): significantly decreased | proliferation rate [5]: suppressed | macrophage migration rate [6]: suppressed | effect on α4β2nAChRs (α4β2nAChRs): partial agonistic effect | atherosclerosis (smokers): reduced | endothelial damage (smokers): reduced | oxidative stress (smokers): reduced

CN1CCCC1c1cccnc1 (stereo not shown) [nicotine]
TNFα levels [7]: decrease

methyllycaconitine citrate [MLA]
IL-1β level in presence of nAChR antagonist [2]: significantly increased | IL-6 level in presence of nAChR antagonist [2]: significantly increased | TNFα level in presence of nAChR antagonist [2]: significantly increased
